pIC50: −log10 of the molar value.
Molecular target: LSD-1 enzyme (Homo sapiens (Human), UniProt O60341)
Assay: LANCE LSD1/KDM1A demethylase assay (LSD1 histone demethylase biochemical assay)
Settings: 1 nM LSD-1 enzyme, 1 hour preincubation at 25° C., 0.4 μM biotin-labeled Histone H3 peptide substrate
Method: LANCE LSD1/KDM1A demethylase assay—10 μL of 1 nM LSD-1 enzyme (ENZO BML-SE544-0050) in the assay buffer (50 mM Tris, pH 7.5, 0.01% Tween-20, 25 mM NaCl, 5 mM DTT) were preincubated for 1 hour at 25° C. with 0.8 μL compound/DMSO dotted in black 384 well polystyrene plates. […] After stopping the reactions plates were incubated for 30 minutes and read on a PHERAstar FS plate reader (BMG Labtech).

Row | Structure (SMILES) | pIC50
1 | CN(C)C(=O)CC1(N2CCC(N[C@@H]3C[C@H]3c3ccccc3)CC2)CN(C2CCOCC2)C1 [Example 121, N,N-dimethyl-2-[3-(4-{[(1R,2S)-2-phenylcyclopropyl]amino}piperidin-1-yl)-1-(tetrahydro-2H-pyran-4-yl)azetidin-3-yl]acetamide] | ≥ 7.00
2 | N#CCC1(N2CCC(N[C@@H]3C[C@H]3c3ccccc3)CC2)CN(C(=O)C2CCOC2)C1 (stereo partly drawn) [Example 108, [3-(4-{[(1R,2S)-2-phenylcyclopropyl]amino}piperidin-1-yl)-1-(tetrahydrofuran-3-ylcarbonyl)azetidin-3-yl]acetonitrile] | ≥ 7.00
3 | Cn1cc(N2CC(CC#N)(N3CCC(N[C@@H]4C[C@H]4c4ccccc4)CC3)C2)cn1 [Example 98, [1-(1-methyl-1H-pyrazol-4-yl)-3-(4-{[(1R,2S)-2-phenylcyclopropyl]amino}piperidin-1-yl)azetidin-3-yl]acetonitrile] | ≥ 7.00
4 | COC(=O)N1CC(CC#N)(N2CCC(N[C@@H]3C[C@H]3c3ccccc3)CC2)C1 (relative stereo) [Example 8, Methyl 3-(cyanomethyl)-3-{4-[(trans-2-phenylcyclopropyl)amino]piperidin-1-yl}azetidine-1-carboxylate] | ≥ 7.00
5 | COCC1(CN[C@@H]2C[C@H]2c2ccccc2)CCN(C2(CC(=O)O)CCC2)CC1 [Example 54, {1-[4-(methoxymethyl)-4-({[(1R,2S)-2-phenylcyclopropyl]amino}methyl)piperidin-1-yl]cyclobutyl}acetic acid] | ≥ 7.00
6 | N#CCC1(N2CCC(N[C@@H]3C[C@H]3c3ccccc3)CC2)CN(C(=O)c2ccn[nH]2)C1 [Example 113, [3-(4-{[(1R,2S)-2-phenylcyclopropyl]amino}piperidin-1-yl)-1-(1H-pyrazol-5-ylcarbonyl)azetidin-3-yl]acetonitrile] | ≥ 7.00
7 | N#CCC1(N2CCC(N[C@@H]3C[C@H]3c3ccccc3)CC2)CN(C(=O)C2(O)CC2)C1 [Example 84, [1-[(1-hydroxycyclopropyl)carbonyl]-3-(4-{[(1R,2S)-2-phenylcyclopropyl]amino}piperidin-1-yl)azetidin-3-yl]acetonitrile] | ≥ 7.00
8 | CN(C)C(=O)CC1(N2CCC(N[C@@H]3C[C@H]3c3ccccc3)CC2)CN(S(C)(=O)=O)C1 [Example 90, N,N-dimethyl-2-(1-(methylsulfonyl)-3-(4-(((1R,2S)-2-phenylcyclopropyl)amino)piperidin-1-yl)azetidin-3-yl)acetamide] | ≥ 7.00
9 | O=C(O)CC1(N2CCC(CN[C@@H]3C[C@H]3c3ccccc3)(Cc3ccc(F)cc3)CC2)CCC1 [Example 53, {1-[4-(4-fluorobenzyl)-4-({[(1R,2S)-2-phenylcyclopropyl]amino}methyl)piperidin-1-yl]cyclobutyl}acetic acid] | ≥ 7.00
10 | N#CCC1(N2CCC(N[C@@H]3C[C@H]3c3ccccc3)CC2)CN(C(=O)C2CCCO2)C1 (stereo partly drawn) [Example 107, 2-(3-(4-(((1R,2S)-2-phenylcyclopropyl)amino)piperidin-1-yl)-1-(tetrahydrofuran-2-carbonyl)azetidin-3-yl)acetonitrile] | ≥ 7.00
11 | N#CCC1(N2CC(CN[C@@H]3C[C@H]3c3ccccc3)C2)CNC1 (relative stereo) [Example 26, (3-{[(trans-2-Phenylcyclopropyl)amino]methyl}-1,3′-biazetidin-3′-yl)acetonitrile] | ≥ 7.00
12 | N#CCC1(N2CCC(N[C@@H]3C[C@H]3c3ccc(F)cc3)CC2)CN(S(N)(=O)=O)C1 [Example 102, 3-(cyanomethyl)-3-(4-{[(1R,2S)-2-(4-fluorophenyl)cyclopropyl]amino}piperidin-1-yl)azetidine-1-sulfonamide] | ≥ 7.00
13 | N#CCC1(N2CCC(N[C@@H]3C[C@H]3c3ccccc3)CC2)CN(C(=O)c2cnccn2)C1 [Example 111, [3-(4-{[(1R,2S)-2-phenylcyclopropyl]amino}piperidin-1-yl)-1-(pyrazin-2-ylcarbonyl)azetidin-3-yl]acetonitrile] | ≥ 7.00
14 | CC(=O)N1CC(CC#N)(N2CCC(N[C@@H]3C[C@H]3c3ccccc3)CC2)C1 (relative stereo) [Example 6, (1-Acetyl-3-{4-[(trans-2-phenylcyclopropyl)amino]piperidin-1-yl}azetidin-3-yl)acetonitrile] | ≥ 7.00
15 | CN(C)C(=O)CC1(N2CCC(CN[C@@H]3C[C@H]3c3ccccc3)CC2)CNC1 (relative stereo) [Example 52, N,N-Dimethyl-2-(3-(4-((trans-2-phenylcyclopropylamino)methyl)piperidin-1-yl)azetidin-3-yl)acetamide] | ≥ 7.00
16 | N#CCC1(N2CCC(N[C@@H]3C[C@H]3c3ccccc3)CC2)CN(C(=O)[C@H]2CCCO2)C1 [Example 117, {3-(4-{[(1R,2S)-2-phenylcyclopropyl]amino}piperidin-1-yl)-1-[(2R)-tetrahydrofuran-2-ylcarbonyl]azetidin-3-yl}acetonitrile] | ≥ 7.00

Row | Structure (SMILES) | pIC50
17 | N#CCC1(N2CCC(N[C@@H]3C[C@H]3c3ccccc3)CC2)CN(C2CC(O)C2)C1 (stereo partly drawn) [Example 106, [1-(3-hydroxycyclobutyl)-3-(4-{[(1R,2S)-2-phenylcyclopropyl]amino}piperidin-1-yl)azetidin-3-yl]acetonitrile] | ≥ 7.00
18 | CCS(=O)(=O)N1CC(CC(=O)NC)(N2CCC(N[C@@H]3C[C@H]3c3ccccc3)CC2)C1 [Example 71, 2-[1-(ethylsulfonyl)-3-(4-{[(1R,2S)-2-phenylcyclopropyl]amino}piperidin-1-yl)azetidin-3-yl]-N-methylacetamide] | ≥ 7.00
19 | CN(C)C(=O)CC1(N2CCC(C)(CN[C@@H]3C[C@H]3c3ccccc3)CC2)CCC1 [Example 56, N,N-dimethyl-2-{1-[4-methyl-4-({[(1R,2S)-2-phenylcyclopropyl]amino}methyl)piperidin-1-yl]cyclobutyl}acetamide] | ≥ 7.00
20 | N#CCC1(N2CCC(N[C@@H]3C[C@H]3c3ccccc3)CC2)CN(C(=O)[C@H]2CC[C@@H](O)CC2)C1 [Example 83, [1-[(cis-4-hydroxycyclohexyl)carbonyl]-3-(4-{[(1R,2S)-2-phenylcyclopropyl]amino}piperidin-1-yl)azetidin-3-yl]acetonitrile] | ≥ 7.00
21 | COC(=O)N1CC(CC(=O)N(C)C)(N2CCC(N[C@@H]3C[C@H]3c3ccccc3)CC2)C1 [Example 94, methyl 3-[2-(dimethylamino)-2-oxoethyl]-3-(4-{[(1R,2S)-2-phenylcyclopropyl]amino}piperidin-1-yl)azetidine-1-carboxylate] | ≥ 7.00
22 | N#CCC1(N2CCC(N[C@@H]3C[C@H]3c3ccccc3)CC2)CN(C(=O)c2cn[nH]c2)C1 [Example 112, [3-(4-{[(1R,2S)-2-phenylcyclopropyl]amino}piperidin-1-yl)-1-(1H-pyrazol-4-ylcarbonyl)azetidin-3-yl]acetonitrile] | ≥ 7.00
23 | O=C(O)CC1(N2CCC(N[C@@H]3C[C@H]3c3ccccc3)CC2)CN(Cc2ncccn2)C1 [Example 125, [3-(4-{[(1R,2S)-2-phenylcyclopropyl]amino}piperidin-1-yl)-1-(pyrimidin-2-ylmethyl)azetidin-3-yl]acetic acid] | ≥ 7.00
24 | COC1CCN(C(=O)N2CC(CC#N)(N3CCC(N[C@@H]4C[C@H]4c4ccccc4)CC3)C2)CC1 [Example 88, [1-[(4-methoxypiperidin-1-yl)carbonyl]-3-(4-{[(1R,2S)-2-phenylcyclopropyl]amino}piperidin-1-yl)azetidin-3-yl]acetonitrile] | ≥ 7.00
25 | N#CCC1(N2CC(CN[C@@H]3C[C@H]3c3ccccc3)C2)CCN(C(=O)c2ccc(F)cc2)CC1 (relative stereo) [Example 19, [1-(4-Fluorobenzoyl)-4-(3-{[(trans-2-phenylcyclopropyl)amino]methyl}azetidin-1-yl)piperidin-4-yl]acetonitrile] | ≥ 7.00
26 | N#CCC1(N2CC(CN[C@@H]3C[C@H]3c3ccccc3)C2)CCN(S(=O)(=O)c2ccccc2)CC1 (relative stereo) [Example 21, [4-(3-{[(trans-2-Phenylcyclopropyl)amino]methyl}azetidin-1-yl)-1-(phenylsulfonyl)piperidin-4-yl]acetonitrile] | ≥ 7.00
27 | N#CCC1(N2CCC(N[C@@H]3C[C@H]3c3ccccc3)CC2)CN(C(=O)c2nccs2)C1 [Example 120, [3-(4-{[(1R,2S)-2-phenylcyclopropyl]amino}piperidin-1-yl)-1-(1,3-thiazol-2-ylcarbonyl)azetidin-3-yl]acetonitrile] | ≥ 7.00
28 | N#CC1(c2ccccc2)CCC(N2CC(CNC3CC3c3ccccc3)C2)CC1 (stereo not drawn) [Example 30, 1-Phenyl-4-(3-{[(trans-2-phenylcyclopropyl)amino]methyl}azetidin-1-yl)cyclohexanecarbonitrile] | ≥ 7.00
29 | CCOC(=O)N1CCC(CC#N)(N2CC(CN[C@@H]3C[C@H]3c3ccccc3)C2)CC1 (relative stereo) [Example 22, Ethyl 4-(cyanomethyl)-4-(3-{[(trans-2-phenylcyclopropyl)amino]methyl}azetidin-1-yl)piperidine-1-carboxylate] | ≥ 7.00
30 | Cn1nccc1C(=O)N1CC(CC#N)(N2CCC(N[C@@H]3C[C@H]3c3ccccc3)CC2)C1 [Example 81, [1-[(1-methyl-1H-pyrazol-5-yl)carbonyl]-3-(4-{[(1R,2S)-2-phenylcyclopropyl]amino}piperidin-1-yl)azetidin-3-yl]acetonitrile] | ≥ 7.00
31 | CCS(=O)(=O)N1CC(CC#N)(N2CC(CN[C@@H]3C[C@H]3c3ccccc3)C2)C1 (relative stereo) [Example 15, (1′-(Ethylsulfonyl)-3-{[(trans-2-phenylcyclopropyl)amino]methyl}-1,3′-biazetidin-3′-yl)acetonitrile] | ≥ 7.00
32 | N#CCC1(N2CCC(N[C@@H]3C[C@H]3c3ccccc3)CC2)CNC1 (relative stereo) [Example 3, (3-{4-[(trans-2-Phenylcyclopropyl)amino]piperidin-1-yl}azetidin-3-yl)acetonitrile] | ≥ 7.00

Source: patent US9994546B2, “Cyclopropylamines as LSD1 inhibitors” (Incyte Corporation, priority 2014, dated 2018)
